According to the SangsterLogP compilation:

Assay: method code SF-AS, from Krisztina, T.; Perjesi, P.; Vámos, J. (2001). Determination of logP for biologically active chalcones and cyclic chalcone analogs by RPTLC. Journal of Planar Chromatography - Modern TLC. 14, 42-46.
Settings: pH 7.4

Compound | logD
O=C1C(=Cc2ccccc2)Cc2ccccc21 | 3.66
O=C(C=Cc1ccccc1)c1ccccc1 | 3.62

Assay: not given
Settings: not given

logP | Compound
4.69 | COc1ccccc1C=C1CCCc2ccccc2C1=O
5.26 | CN(C)c1ccc(C=C2CCCc3ccccc3C2=O)cc1
4.92 | Cc1ccccc1C=C1CCCc2ccccc2C1=O
5.35 | O=C1C(=Cc2cccc(Br)c2)CCCc2ccccc21
5.1 | O=C1C(=Cc2ccc(Cl)cc2)CCCc2ccccc21
4.15 | O=C1C(=Cc2ccc([N+](=O)[O-])cc2)CCCc2ccccc21
4.48 | O=C1C(=Cc2ccccc2)CCCc2ccccc21
3.97 | COc1cccc(C=C2Cc3ccccc3C2=O)c1
5.22 | O=C1C(=Cc2ccc(Br)cc2)CCCc2ccccc21
4.72 | COc1ccc(C=C2CCCc3ccccc3C2=O)cc1
4.42 | COc1cccc(/C=C2\CCc3ccccc3C2=O)c1
4.98 | Cc1cccc(C=C2CCCc3ccccc3C2=O)c1
4.14 | O=C1/C(=C\c2ccccc2)CCc2ccccc21
4.07 | O=C1/C(=C/c2ccccc2[N+](=O)[O-])CCCc2ccccc21
4.45 | O=C1C(=Cc2ccc(F)cc2)CCCc2ccccc21
5.04 | O=C1C(=Cc2ccccc2Br)CCCc2ccccc21
5.1 | Cc1ccc(C=C2CCCc3ccccc3C2=O)cc1
5.04 | O=C1C(=Cc2ccccc2Cl)CCCc2ccccc21
4.6 | O=C1C(=Cc2cccc(F)c2)CCCc2ccccc21
4.32 | O=C1C(=Cc2cccc([N+](=O)[O-])c2)CCCc2ccccc21

Second part, the compound before the results:

Compound | logP
N#Cc1ccc(/C=C/C(=O)c2ccccc2)cc1 | 2.93
COc1ccccc1C=C1CCc2ccccc2C1=O | 4.43
COc1ccc(C=C2Cc3ccccc3C2=O)cc1 | 3.91
CN(C)c1ccc(/C=C/C(=O)c2ccccc2)cc1 | 4.23
COc1ccccc1C=C1Cc2ccccc2C1=O | 4.01
COc1ccc(/C=C/C(=O)c2ccccc2)cc1 | 3.67
CN(C)c1ccc(C=C2Cc3ccccc3C2=O)cc1 | 4.5
COc1cccc(C=CC(=O)c2ccccc2)c1 | 3.8
COc1ccc(C=C2CCc3ccccc3C2=O)cc1 | 4.32
COc1ccccc1C=CC(=O)c1ccccc1 | 3.99
CN(C)c1ccc(C=C2CCc3ccccc3C2=O)cc1 | 4.91
